Source: ChEMBL document CHEMBL1177677, “Tryptamine-derived alkaloids from Annonaceae exerting neurotrophin-like properties on primary dopaminergic neurons” (Bioorg Med Chem, 2010)

Key:
Neuron [1] = assay: Neuroprotective activity against degeneration of rat DA neurons assessed as […] immunopositive neurons at 10 nM by immunofluorescence staining relative to control; format: functional
Neuron [2] = assay: Neuritogenic effect in rat DA neurons assessed as total neurite length per […] immunopositive neurons at 10 nM relative to control; format: functional
[3] = Antioxidant activity assessed as ABTS radical scavenging activity; format: functional
Neuron [4] = assay: Antioxidant activity in mesecephalic neuron assessed as ROS production at 10 nM by dihydrorhodamine-123 incorporation assay relative to control; format: functional
Brain = assay: Biodistribution in Swiss mouse brain at 150 mg/kg, iv; format: ADME, organism-based; parameters: dose 150 mg/kg, route intravenous; conditions: in vivo
Mus musculus = species: Mus musculus; assay: Toxicity in Swiss mouse assessed as change in body weight, food intake; format: organism-based; conditions: in vivo
Neuron [5] = assay: Neuroprotective activity against degeneration of rat DA neurons assessed as […] immunopositive neurons immunofluorescence staining at 200 nM relative to control; format: functional
Neuron [6] = assay: Neuritogenic effect in rat DA neurons assessed as total neurite length per […] immunopositive neurons at 200 nM relative to control; format: functional
Neuron [7] = assay: Antioxidant activity in mesecephalic neuron assessed as ROS production at 10 uM by dihydrorhodamine-123 incorporation assay relative to control; format: functional

Row | Compound | Activity (Neuron [1]) | Activity (Neuron [2]) | IC50 [3] | Activity (Neuron [4]) | also measured
1 | CCCCCCCCCCCCCCC(=O)NCCc1c[nH]c2ccccc12 | 99.3% | 139% | – | – | –
2 | CCCCCCCCCCCCCNCCc1c[nH]c2ccccc12 | 92.8% | 121.2% | 810 µM | – | –
3 | O=C(CCCCCCCCCCCCCCO)NCCc1c[nH]c2ccccc12 | 108% | 159.3% | > 1000 µM | 60.9% | –
4 | CCCCC/C=C\C/C=C\CCCCCCCC(=O)NCCc1c[nH]c2ccccc12 | 111.4% | 154% | – | 56.5% | –
5 | CCCCCCCCCCCCCCCCC(=O)NCCc1c[nH]c2ccccc12 | 106% | 136% | – | – | –
6 | CCCCCCCCCCCCCCCCCCCCCCCNCCc1c[nH]c2ccccc12 | 129.6% | 141.2% | 670 µM | – | –
7 | CCCCC/C=C\C/C=C\CCCCCCCCNCCc1c[nH]c2ccccc12 | 137.5% | 156.7% | 340 µM | 44% | –
8 | CCCCCCCCCCCCCCCNCCc1c[nH]c2ccccc12 | 106% | 132.7% | – | – | –
9 | CCCCCCCCCCCCCCCCNCCc1c[nH]c2ccccc12 | 131.9% | 197% | 620 µM | 47.8% | Drug uptake (Brain): 21.8 ng/mL; Activity (Mus musculus): Non-toxic
10 | CCCCCCCCCCCCCCCCCCCCNCCc1c[nH]c2ccccc12 | 128.9% | 132.6% | – | – | –
11 | CCCCCCCCCCCCCCCCCNCCc1c[nH]c2ccccc12 | 110.6% | 139% | – | – | –
12 | CCCCCCCCCCCCCCCCCCNCCc1c[nH]c2ccccc12 | 129.9% | 157.3% | – | – | –
13 | OCCCCCCCCCCCCCCCNCCc1c[nH]c2ccccc12 | 129.4% | 160.8% | 730 µM | 43.7% | –
14 | CCCCCCCCCCCCC(=O)NCCc1c[nH]c2ccccc12 | 98.5% | 126.2% | > 1000 µM | – | –
15 | CCCCCCCCCCCCCCCCCCCCCCC(=O)NCCc1c[nH]c2ccccc12 | 114% | 145.4% | – | – | –
16 | CCCCCCCCCCCCCCCC(=O)NCCc1c[nH]c2ccccc12 | 121.3% | 168.6% | > 1000 µM | 55.9% | –
17 | CCCCCCCCCCCCCCCCCC(=O)NCCc1c[nH]c2ccccc12 | 110% | 149.9% | – | – | –
18 | CCCCCCCCCCCCCCCCCCCC(=O)NCCc1c[nH]c2ccccc12 | 121.8% | 147.4% | – | – | –
19 | CCCC(=O)Nc1ncnc2c1ncn2[C@@H]1O[C@@H]2COP(=O)(O)O[C@H]2[C@H]1OC(=O)CCC [BUCLADESINE] | – | – | – | – | Activity (Neuron [5]): 149.9%; Activity (Neuron [6]): 333.1%
20 | Cc1c(C)c2c(c(C)c1O)CCC(C)(C(=O)O)O2 (stereo unspecified) [TROLOX] | – | – | 550 µM | – | Activity (Neuron [7]): 44%
